Results reported in patent publication US8377867B2, “Use of epinecidin-1 peptides and anti-lipopolysaccharide factor peptides for treating microbial infection” (Academia Sinica, priority 2009, dated 2013).
Bridge positions count the residues as written; N and C are the ends. Ends that are not written are not given here. Peptide text beside a SMILES is read from it.

How the values were obtained:
[1] = test system: T. vaginalis cells (ATCC 50148 and T1); assay: T. vaginalis cell viability, trypan blue exclusion assay; type: cell-based, Trichomonas vaginalis
Description: Finally, the numbers of viable T. vaginalis cells after peptide treatment were counted following the method described in Ofer et al., Int. J. Parasitol., 38:959-968 (2008). Briefly, cells of ATCC 50148 and T1 were treated with each of the three peptides mentioned above at 25, 50, 100, or 200 μg/ml for 1, 4, and 16 h (overnight), then the viability was analyzed. Cell viability was then determined by the conventional trypan blue exclusion assay. […] More than 60% T1 cells died after being treated with this peptide at a concentration of 50 μg/ml for one hour.

[2] = test system: T. vaginalis cells (ATCC 50148 and T1); assay: Scanning electron microscopy of T. vaginalis morphology; type: cell-based, Trichomonas vaginalis; settings: ATCC 50148 and T1 cells, peptide 100 or 200 μg/ml, 1, 4 and 16 hours
Description: The effect of the three peptides on morphology of T. vaginalis cells was examined by scanning electron microscopy (SEM) and transmission electron microscopy (TEM) as follows. Cells of the ATCC 50148 and T1 strains were cultured in a 96-well cell culture plate (1×10^4 cells/well). The ATCC 50148 cells were treated with Epinecidin-122-42 (100 μg/ml), csSALF55-76 (100 μg/ml), or 1sSALF122-42 (200 μg/ml) for 1, 4, and 16 hours and the T1 cells were treated with Epinecidin-122-42 (100 μg/ml), csSALF55-76 (200 μg/ml), or 1sSALF122-42 (100 μg/ml) for the same periods. T. vaginalis cells treated with PBS were used as a control. The treated cells were then analyzed by SEM. […] A large amount of cell debris was also observed in the peptide-treated cells.

[3] = test system: T. vaginalis cells (ATCC 50148 and T1); assay: Transmission electron microscopy of T. vaginalis morphology; type: cell-based, Trichomonas vaginalis; settings: ATCC 50148 and T1 cells, 16 hours, peptide 150-250 (Epinecidin 150 μg/ml, csSALF 250 mg/ml, lsSALF 150 or 200 μg/ml)
Description: The T. vaginalis cells mentioned above were also subjected to TEM analysis as described in Pan et al., DNA Cell Biol. 26:403-413 (2007). Briefly, the ATCC 50148 cells (2×10^4) were treated for 16 hours with Epinecidin-122-42 at a concentration of 150 μg/ml, csSALF55-76 at a concentration of […], and 1sSALF122-42 at a concentration of 150 μg/ml; the T1 cells (2×10^4) were treated for 16 hours with Epinecidin-122-42 at a concentration of 150 μg/ml, csSALF55-76 at a concentration of […], and 1sSALF122-42 at a concentration of 200 μg/ml. T. vaginalis cells treated with PBS were used as a control. Morphology of the treated cells was observed using a transmission electron microscope (Hitachi, H-7000, Tokyo, Japan) at 75 kV; see Pan et al., DNA Cell Biol. 26:403-413 (2007).

T. vaginalis cells = assay: EtBr/acridine orange staining of T. vaginalis cells, epifluorescence microscopy; type: cell-based, Trichomonas vaginalis; settings: peptide 200 μg/ml co-treated with metronidazole 100 μg/ml, 16 hours
Description: T. vaginalis cells (4000 cells/well) were co-treated with metronidazole (100 μg/ml) and Epinecidin-122-42 (200 μg/ml), csSALF55-76 (200 μg/ml), or 1sSALF122-42 (200 μg/ml) for 16 hours. Both metronidazole and the peptides were dissolved in PBS. The T. vaginalis cells were then stained with cold PBS containing 1 μg/ml ethidium bromide (EtBr) and 1 μg/ml acridine orange (AO) for 10 minutes and examined by epifluorescence microscopy.

[4] = test system: Propionibacterium acnes (BCRC #10723); assay: SEM and TEM of P. acnes morphology; type: cell-based; settings: P. acnes BCRC #10723, peptide 100 μg/ml in PBS
Description: The effect of Epinecidin-122-42 on P. acnes morphology was examined by SEM and TEM as follows. BCRC #10723 cells were seeded in a 6-well plate (1×10^4 cells per well), cultured for a sufficient period, collected by centrifugation, and re-suspended in PBS to reach an OD550 value of 1.0. The bacterial suspension was mixed with a freshly prepared PBS solution containing the peptide at a concentration of 100 μg/ml or PBS as a control.

[5] = test system: C. albicans strain BCRC #20511; type: cell-based, Candida albicans
Description: Cells of C. albicans strain BCRC #20511 were cultured following the protocol provided by BCRC. These cells were treated with peptide Epinecidin-122-42 at various concentrations and their growth inhibition was examined following the method disclosed in Pan et al., Int. Immunopharmacol. 7:687-700 (2007).

[6] = test system: C. albicans strain BCRC #20511; assay: SEM and TEM of C. albicans morphology; type: cell-based, Candida albicans; settings: C. albicans BCRC #20511, peptide 50 μg/ml
Description: The effect of Epinecidin-122-42 (50 μg/ml) on C. albicans cell morphology was analyzed by SEM and TEM following the methods mentioned above.

[7] = test system: Propionibacterium acnes (BCRC #10723); type: cell-based
Description: Propionibacterium acnes (BCRC #10723) cells were cultured under the conditions recommended by Bioresource Collection and Research Centre (BCRC) in Taiwan (see bcrc.firdi,org.tw:819/bcrc/indexe.htm). Their growth inhibition by Epinecidin-122-42 was determined following the method described in Pan et al., DNA Cell Biol. 26:403-413 (2007). The minimum inhibitory concentration of this peptide against P. acnes was 200 μg/ml.

[8] = ATCC 50148 cells, 50 μg/ml, four hours

| Molecule | Cells died after treatment [1, 8] | Cells died after treatment ([1]; T1 cells, 25 μg/ml, 16 hours) | Cell morphology by SEM [2] | Cell morphology by TEM [3] | Effect on cellular and nuclear membranes (EtBr/AO red color in nuclei) (T. vaginalis cells) | Viable cells after treatment ([1]; ATCC 50148 cells, 25 μg/ml, one hour) | Viable cells after treatment ([1]; T1 cells, 25 μg/ml, four hours) | Cells died after treatment ([1]; T1 cells, 50 μg/ml, one hour) | Cell morphology by SEM and TEM [4] | Cell growth inhibition ([5]; C. albicans BCRC #20511, various concentrations) | Minimum inhibitory concentration ([5]; strain BCRC #20511) | Cell morphology by SEM and TEM [6] | Minimum inhibitory concentration [7] |
| --- | --- | --- | --- | --- | --- | --- | --- | --- | --- | --- | --- | --- | --- |
| CSCC[C@@H]1NC(=O)[C@H](CCCNC(=N)N)NC(=O)CNC(=O)[C@H](CCCCN)NC(=O)[C@H](Cc2ccc(O)cc2)NC(=O)[C@H](Cc2ccc(O)cc2)NC(=O)[C@H](C(C)C)NC(=O)[C@H](CCC(N)=O)NC(=O)[C@H](Cc2ccccc2)NC(=O)[C@H](CCCNC(=N)N)NC(=O)[C@H](CCCCN)NC(=O)[C@H](CC(C)C)NC(=O)[C@H](Cc2ccc(O)cc2)NC(=O)[C@@H]2CCCN2C(=O)[C@H](CCCCN)NC(=O)[C@H](C(C)C)NC(=O)[C@H]([C@@H](C)O)NC(=O)[C@H](Cc2ccccc2)NC(=O)[C@H](CCCCN)NC(=O)[C@@H](NC(=O)[C@H](CCC(=O)O)NC(C)=O)CSSC[C@@H](C(=O)N2CCC[C@H]2C(N)=O)NC(=O)[C@H](Cc2c[nH]c3ccccc23)NC1=O [cs-SALF55-76] (Ac-ECKFTVKPYLKRFQVYYKGRMWCP-NH2; disulfide 2-23; N-terminus and C-terminus assumed) | most ATCC 50148 cells died | most T1 cells died | damaged cell membranes and distorted cell shape | significantly disrupted the intact structure | destroyed the cellular and nuclear membranes | – | – | – | – | – | – | – | – |
| CSCC[C@H](NC(=O)[C@H](CCCNC(=N)N)NC(=O)CNC(=O)[C@H](CCCCN)NC(=O)[C@H](Cc1ccc(O)cc1)NC(=O)[C@H](Cc1ccc(O)cc1)NC(=O)[C@@H](NC(=O)[C@H](CCC(N)=O)NC(=O)[C@H](Cc1ccccc1)NC(=O)[C@H](CCCNC(=N)N)NC(=O)[C@H](CCCCN)NC(=O)[C@H](CC(C)C)NC(=O)[C@H](Cc1ccc(O)cc1)NC(=O)[C@@H]1CCCN1C(=O)[C@H](CCCCN)NC(=O)[C@@H](NC(=O)[C@@H](NC(=O)[C@H](Cc1ccccc1)NC(=O)[C@H](CCCCN)NC(=O)[C@H](CS)NC(=O)[C@@H](N)CCC(=O)O)[C@@H](C)O)C(C)C)C(C)C)C(=O)N[C@@H](Cc1c[nH]c2ccccc12)C(=O)N[C@@H](CS)C(=O)N1CCC[C@H]1C(=O)O [ls-SALF55-76] (H-ECKFTVKPYLKRFQVYYKGRMWCP-OH; N-terminus and C-terminus assumed) | most ATCC 50148 cells died | most T1 cells died | damaged cell membranes and distorted cell shape | significantly disrupted the intact structure | destroyed the cellular and nuclear membranes | – | – | – | – | – | – | – | – |
| GFIFHIIKGLFHAGKMIHGLV-NH2 [Epinecidin-122-42] | – | – | damaged cell membranes and distorted cell shape | significantly disrupted the intact structure | destroyed the cellular and nuclear membranes | No viable cells | No viable cells | More than 60% | destroyed the outer membranes of P. acnes cells | significantly inhibited C. albicans cell growth | 25 µg/mL | irregular shape and disrupted outer/intracellular membranes | 200 µg/mL |
